From US20120295907A1, “INSECTICIDAL COMPOUNDS” (SYNGENTA CROP PROTECTION, LLC, priority 2009, published 2012)

Legend:
Assay type in all cases: in vivo
Spodoptera littoralis = Spodoptera littoralis (Egyptian Cotton Leafworm) cotton leaf disc spray test; conditions: foliar, 72 h, 200 ppm spray on cotton leaf discs, L1 larvae, mortality, feeding behavior, growth regulation 3 DAT
Heliothis virescens = Heliothis virescens (Tobacco Budworm) egg test on artificial diet; conditions: 96 h, 200 ppm (concentration in well 18 ppm), eggs 0-24 h old on artificial diet, 4 days, egg mortality, larval mortality, growth regulation
Plutella xylostella = Plutella xylostella (Diamond Back Moth) artificial diet MTP test; conditions: 144 h, 200 ppm (concentration in well 18 ppm), L2 larvae, 6 days, larval mortality, growth regulation
Diabrotica balteata = Diabrotica balteata (Corn Root Worm) artificial diet MTP test; conditions: 120 h, 200 ppm (concentration in well 18 ppm), L2 larvae, 5 days, larval mortality, growth regulation

Measured: pest or weed control at 200 ppm

COc1cccc(F)c1C(=O)Nc1cccc(C(=O)Nc2c(Cl)cc(C(F)(C(F)(F)F)C(F)(F)C(F)(F)F)cc2Br)c1OC (centres unmarked) [B166]
≥ 80%: all assays above

COc1c(NC(=O)c2cc([N+](=O)[O-])cc([N+](=O)[O-])c2C)cccc1C(=O)Nc1c(Cl)cc(C(F)(C(F)(F)F)C(F)(F)C(F)(F)F)cc1Br (centres unmarked) [B86]
≥ 80%: all assays above

COc1c(NC(=O)c2ccc([N+](=O)[O-])c(C)c2)cccc1C(=O)Nc1c(C)cc(C(F)(C(F)(F)F)C(F)(F)C(F)(F)F)cc1C (centres unmarked) [F23]
≥ 80%: all assays above

COc1c(NC(=O)c2cc([N+](=O)[O-])c(F)cc2Cl)cccc1C(=O)Nc1c(Cl)cc(C(F)(C(F)(F)F)C(F)(F)C(F)(F)F)cc1Br (centres unmarked) [B130]
≥ 80%: all assays above

COc1c(NC(=O)c2ccc(SC)cc2[N+](=O)[O-])cccc1C(=O)Nc1c(Cl)cc(C(F)(C(F)(F)F)C(F)(F)C(F)(F)F)cc1Br (centres unmarked) [B116]
≥ 80%: all assays above

COc1c(NC(=O)c2cc(Cl)ccc2F)cccc1C(=O)Nc1c(Cl)cc(C(F)(C(F)(F)F)C(F)(F)F)cc1Cl [E8]
≥ 80%: all assays above

COc1c(NC(=O)c2cn(C)nc2C(F)F)cccc1C(=O)Nc1c(Cl)cc(C(F)(C(F)(F)F)C(F)(F)C(F)(F)F)cc1Br (centres unmarked) [B131]
≥ 80%: all assays above

CCc1cc(C(F)(C(F)(F)F)C(F)(F)F)cc(C)c1NC(=O)c1cccc(NC(=O)c2ccc(C#N)cc2C)c1OC [J4]
≥ 80%: Heliothis virescens | Plutella xylostella | Diabrotica balteata

COc1c(NC(=O)c2cc(C)ccc2Cl)cccc1C(=O)Nc1c(Cl)cc(C(F)(C(F)(F)F)C(F)(F)C(F)(F)F)cc1Br (centres unmarked) [B72]
≥ 80%: all assays above

COc1c(NC(=O)c2cc(Br)ccc2Cl)cccc1C(=O)Nc1c(Cl)cc(C(F)(C(F)(F)F)C(F)(F)C(F)(F)F)cc1Br (centres unmarked) [B83]
≥ 80%: all assays above

COc1c(NC(=O)c2ccc(Cl)c(Cl)c2)cccc1C(=O)Nc1c(C)cc(C(F)(C(F)(F)F)C(F)(F)C(F)(F)F)cc1C (centres unmarked) [F17]
≥ 80%: all assays above

COc1c(NC(=O)c2ccc(F)cc2F)cccc1C(=O)Nc1c(C)cc(C(F)(C(F)(F)F)C(F)(F)C(F)(F)F)cc1C (centres unmarked) [F9]
≥ 80%: all assays above

COc1c(NC(=O)c2ncc(Cl)cc2Cl)cccc1C(=O)Nc1c(Cl)cc(C(F)(C(F)(F)F)C(F)(F)C(F)(F)F)cc1Br (centres unmarked) [B185]
≥ 80%: all assays above

COc1c(NC(=O)c2cc(C)oc2C(F)(F)F)cccc1C(=O)Nc1c(Cl)cc(C(F)(C(F)(F)F)C(F)(F)C(F)(F)F)cc1Br (centres unmarked) [B144]
≥ 80%: all assays above

COc1c(NC(=O)c2ccc(Cl)cc2)cccc1C(=O)Nc1c(C)cc(C(F)(C(F)(F)F)C(F)(F)C(F)(F)F)cc1C (centres unmarked) [F19]
≥ 80%: all assays above

COc1c(NC(=O)c2cn(C)nc2C#N)cccc1C(=O)Nc1c(Cl)cc(C(F)(C(F)(F)F)C(F)(F)C(F)(F)F)cc1Br (centres unmarked) [B117]
≥ 80%: all assays above

COc1c(NC(=O)c2cc([N+](=O)[O-])ccc2Cl)cccc1C(=O)Nc1c(Cl)cc(C(F)(C(F)(F)F)C(F)(F)C(F)(F)F)cc1Br (centres unmarked) [B62]
≥ 80%: all assays above

COCc1cc(C(F)(C(F)(F)F)C(F)(F)C(F)(F)F)cc(Cl)c1NC(=O)c1cccc(NC(=O)c2c(F)cc(F)cc2F)c1OC (centres unmarked) [H2]
≥ 80%: Heliothis virescens | Plutella xylostella | Diabrotica balteata

COCc1cc(C(F)(C(F)(F)F)C(F)(F)C(F)(F)F)cc(Br)c1NC(=O)c1cccc(NC(=O)c2ccc(C#N)cc2C)c1OC (centres unmarked) [I1]
≥ 80%: Heliothis virescens | Plutella xylostella | Diabrotica balteata

COc1c(NC(=O)c2ccc(C(F)(F)F)cc2)cccc1C(=O)Nc1c(C)cc(C(F)(C(F)(F)F)C(F)(F)C(F)(F)F)cc1C (centres unmarked) [F26]
≥ 80%: all assays above

COc1c(NC(=O)c2ccc(C)c(Br)c2)cccc1C(=O)Nc1c(Cl)cc(C(F)(C(F)(F)F)C(F)(F)C(F)(F)F)cc1Br (centres unmarked) [B84]
≥ 80%: all assays above

CCc1cc(C(F)(C(F)(F)F)C(F)(F)C(F)(F)F)cc(C)c1NC(=O)c1cccc(NC(=O)c2ccc(F)cc2)c1OC (centres unmarked) [A1, N-[2-ethyl-4-(1,2,2,3,3,3-hexafluoro-1-trifluoromethylpropyl)-6-methylphenyl]-3-(4-fluorobenzoylamino)-2-methoxybenzamide]
≥ 80%: all assays above

COc1c(NC(=O)c2cccc(F)c2F)cccc1C(=O)Nc1c(Cl)cc(C(F)(C(F)(F)F)C(F)(F)C(F)(F)F)cc1Br (centres unmarked) [B22]
≥ 80%: all assays above

COc1c(NC(=O)c2ccc(C(F)(F)F)cc2SC)cccc1C(=O)Nc1c(Cl)cc(C(F)(C(F)(F)F)C(F)(F)C(F)(F)F)cc1Br (centres unmarked) [B125]
≥ 80%: Heliothis virescens | Plutella xylostella | Diabrotica balteata

CCc1cc(C(F)(C(F)(F)F)C(F)(F)F)cc(C)c1NC(=O)c1cccc(NC(=O)c2c(F)cc(F)cc2F)c1OC [J3]
≥ 80%: Heliothis virescens | Plutella xylostella | Diabrotica balteata

COc1c(NC(=O)c2ccc(-n3cccc3)cc2)cccc1C(=O)Nc1c(Cl)cc(C(F)(C(F)(F)F)C(F)(F)C(F)(F)F)cc1Br (centres unmarked) [B30]
≥ 80%: Spodoptera littoralis | Heliothis virescens | Diabrotica balteata
